According to patent US5973112A, “Collagen mimics” (Wisconsin Alumni Research Foundation, priority 1997, dated 1999):

Assays:
[1] = crystalline structure, Cγ-Cδ bond length; format: physicochemical
Source text: The origin of this effect on trans:cis ratio was explored by determining the crystalline structures of AcProOMe, AcHypOMe, and AcFlpOMe, Panasik et al., Int. J. Pept. Protein Res., 44:262-269. […] This order is consistent with an inductive effect in which the substituent in the 4-position withdraws electron density away from the Cγ-Cδ bond. A shorter Cγ-Cδ bond length diminishes steric clashes between atoms in the trans isomer, but has no effect on the cis isomer. The inductive effect from the hydroxyl group of Hyp residues is consistent with the effect of Hyp on collagen stability. Other manifestations of the inductive effects of Hyp and Flp residues were also found by Panasik et al. and by Eberhardt et al. Similar inductive effects should be manifested in 4(S)-fluoroproline and in 4,4-difluoroproline.

[2] = trans:cis ratio of the proline peptide bond in N-acetyl proline methylester derivatives; format: physicochemical; conditions: for ΔΔG: relative to AcProOMe
Procedure: To begin to test this hypothesis, it was determined how electron-withdrawing groups affect the trans:cis ratio. N-Acetyl proline methylester (AcProOMe), N-acetyl-4(R)-hydroxyproline methylester (AcHypOMe), and N-acetyl-4(R)-fluoroproline (AcFlpOMe) were synthesized and their preferences for the trans state were determined, Eberhardt et al., J. Am. Chem. Soc., 118:12261-12266 (1996).

In the case of `COC(=O)[C@@H]1C[C@@H](O)CN1C(C)=O` [AcHypOMe, N-acetyl-4(R)-hydroxyproline methylester], the Cy-Cδ bond length [1] is reported as 1.510 Å, the “trans:cis ratio” value [2] is reported as 5.8 and the ΔΔG [2] is reported as 0.18 kcal/mol.
With `COC(=O)[C@@H]1CCCN1C(C)=O` [AcProOMe, N-Acetyl proline methylester] the Cy-Cδ bond length [1] was 1.523 Å, the “trans:cis ratio” value [2] was 4.3 and the ΔΔG [2] was 0 kcal/mol.
